Assay results from patent US20240254118A1, “PRMT5 INHIBITORS AND USES THEREOF” (Gilead Sciences, Inc., priority 2022, published 2024).

Legend:
[1] = tested on: SDMA signal (PRMT5 inhibition) in HCT116 MTAP-deleted cells; assay: Symmetric di-methyl arginine image-based high content screen assay (SDMA assay), HCT116 MTAP-deleted; type: cell-based; conditions: SDMA assay; for EC50: Homo sapiens, HCT-116, 72 h, 3 days of treatment, cell line not given, taken as HCT116 MTAP-deleted, read-out: EC50 (SDMA assay); for EC50 selectivity (SDMA assay): taken as HCT116 WT vs MTAP-deleted
In short: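 Read-out: per-cell mean SDMA immunofluorescence (Alexa Fluor 488 secondary), cells segmented by DAPI on a high-content imager. Compound exposure in HCT116 MTAP-deleted cells lasted until fixation on Day 3; overnight 4° C primary anti-SDMA antibody staining.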

[2] = tested on: HCT116 MTAP-deleted cells; assay: Cell viability assay (CellTiter-Glo, 7 days), HCT116 MTAP-deleted; conditions: Homo sapiens, HCT-116, 168 h

Row | Structure (SMILES) | EC50 [1] | EC50 selectivity (SDMA assay) [1] | CC50 [2]
1 | CN(C(=O)C1CC1)N(Cc1nc2cc(C(F)(F)F)ccc2n1C)C(=O)c1ccc2nc(N)c3cnn(C)c3c2c1 [Example 437, 4-amino-N′-(cyclopropanecarbonyl)-N′,1-dimethyl-N-((1-methyl-5-(trifluoromethyl)-1H-benzo[d]imidazol-2-yl)methyl)-1H-pyrazolo[4,3-c]quinoline-8-carbohydrazide] | 1 to 5 nM | 256 | < 100 nM
2 | Cn1ncc2c(N)nc3ccc(C(=O)N(Cc4ccc(Cl)cc4F)NC(=O)C4CC4)cc3c21 [Example 439, 4-amino-N-(4-chloro-2-fluorobenzyl)-N′-(cyclopropanecarbonyl)-1-methyl-1H-pyrazolo[4,3-c]quinoline-8-carbohydrazide] | < 1 nM | 51 | < 100 nM
3 | CC(=O)N(C)N(Cc1sc2ccccc2c1Cl)C(=O)c1ccc2nc(N)c3cnn(C)c3c2c1 [Example 442, N′-acetyl-4-amino-N-((3-chlorobenzo[b]thiophen-2-yl)methyl)-N′,1-dimethyl-1H-pyrazolo[4,3-c]quinoline-8-carbohydrazide] | < 1 nM | 163 | < 100 nM
4 | CC(=O)NN(Cc1ccc(C(F)(F)F)cc1F)C(=O)c1ccc2nc(N)c3cnn(C)c3c2c1 [Example 445, N′-acetyl-4-amino-N-(2-fluoro-4-(trifluoromethyl)benzyl)-1-methyl-1H-pyrazolo[4,3-c]quinoline-8-carbohydrazide] | < 1 nM | 69 | < 100 nM
5 | CC(=O)N(C)N(Cc1ccc(OC(F)F)cc1Cl)C(=O)c1ccc2nc(N)c3cnn(C)c3c2c1 [Example 447, N′-acetyl-4-amino-N-(2-chloro-4-(difluoromethoxy)benzyl)-N′,1-dimethyl-1H-pyrazolo[4,3-c]quinoline-8-carbohydrazide] | < 1 nM | 49 | < 100 nM
6 | CC(=O)N(C)N(Cc1c(Cl)ccc(F)c1F)C(=O)c1ccc2nc(N)c3cnn(C)c3c2c1 [Example 448, N′-acetyl-4-amino-N-(6-chloro-2,3-difluorobenzyl)-N′,1-dimethyl-1H-pyrazolo[4,3-c]quinoline-8-carbohydrazide] | 1 to 5 nM | 224 | < 100 nM
7 | CC(=O)N(C)N(Cc1cc(F)c(F)cc1Cl)C(=O)c1ccc2nc(N)c3cnn(C)c3c2c1 [Example 450, N′-acetyl-4-amino-N-(2-chloro-4,5-difluorobenzyl)-N′,1-dimethyl-1H-pyrazolo[4,3-c]quinoline-8-carbohydrazide] | < 1 nM | 394 | < 100 nM
8 | CC(=O)N(C)N(Cc1ccc(Cl)cc1C#N)C(=O)c1ccc2nc(N)c3cnn(C)c3c2c1 [Example 457, N′-acetyl-4-amino-N-(4-chloro-2-cyanobenzyl)-N′,1-dimethyl-1H-pyrazolo[4,3-c]quinoline-8-carbohydrazide] | < 1 nM | 90 | < 100 nM

More lines, main results first:

Row | EC50 [1] | EC50 selectivity (SDMA assay) [1] | Structure (SMILES) | CC50 [2]
9 | < 1 nM | 141 | CC(=O)N(C)N(Cc1nc2cccc(Cl)c2n1C)C(=O)c1ccc2nc(N)c3cnn(C)c3c2c1 [Example 438, N′-acetyl-4-amino-N-((7-chloro-1-methyl-1H-benzo[d]imidazol-2-yl)methyl)-N′,1-dimethyl-1H-pyrazolo[4,3-c]quinoline-8-carbohydrazide] | < 100 nM
10 | < 1 nM | 400 | Cn1ncc2c(N)nc3ccc(C(=O)N(Cc4ccc(C(F)(F)F)cn4)NC(=O)C4CC4)cc3c21 [Example 443, 4-amino-N′-(cyclopropanecarbonyl)-1-methyl-N-((5-(trifluoromethyl)pyridin-2-yl)methyl)-1H-pyrazolo[4,3-c]quinoline-8-carbohydrazide] | < 100 nM
11 | < 1 nM | 117 | CC(=O)N(C)N(Cc1sc2ccccc2c1Br)C(=O)c1ccc2nc(N)c3cnn(C)c3c2c1 [Example 444, N′-acetyl-4-amino-N-((3-bromobenzo[b]thiophen-2-yl)methyl)-N′,1-dimethyl-1H-pyrazolo[4,3-c]quinoline-8-carbohydrazide] | < 100 nM
12 | 1 to 5 nM | 62 | CN(Cc1ccccn1)N(Cc1ccc(C(F)(F)F)cn1)C(=O)c1cc2c(cc1F)nc(N)c1cnn(C)c12 [Example 449, 4-amino-7-fluoro-N′,1-dimethyl-N′-(pyridin-2-ylmethyl)-N-((5-(trifluoromethyl)pyridin-2-yl)methyl)-1H-pyrazolo[4,3-c]quinoline-8-carbohydrazide] | < 100 nM
13 | < 1 nM | 111 | CC(=O)N(C)N(Cc1ccc(F)cc1Cl)C(=O)c1ccc2nc(N)c3cnn(C)c3c2c1 [Example 451, N′-acetyl-4-amino-N-(2-chloro-4-fluorobenzyl)-N′,1-dimethyl-1H-pyrazolo[4,3-c]quinoline-8-carbohydrazide] | < 100 nM
14 | < 1 nM | 213 | CC(=O)N(C)N(Cc1ccc(F)cc1C#N)C(=O)c1ccc2nc(N)c3cnn(C)c3c2c1 [Example 452, N′-acetyl-4-amino-N-(2-cyano-4-fluorobenzyl)-N′,1-dimethyl-1H-pyrazolo[4,3-c]quinoline-8-carbohydrazide] | < 100 nM
15 | < 1 nM | 15 | CN(CC1CCC1)N(Cc1ccc(C(F)(F)F)cn1)C(=O)c1cc2c(cc1F)nc(N)c1cnn(C)c12 [Example 453, 4-amino-N′-(cyclobutylmethyl)-7-fluoro-N′,1-dimethyl-N-((5-(trifluoromethyl)pyridin-2-yl)methyl)-1H-pyrazolo[4,3-c]quinoline-8-carbohydrazide] | < 100 nM
16 | 1 to 5 nM | 421 | CCC(=O)N(C)N(Cc1ncc(C(F)(F)F)cc1Cl)C(=O)c1ccc2nc(N)c3cnn(C)c3c2c1 [Example 454, 4-amino-N-((3-chloro-5-(trifluoromethyl)pyridin-2-yl)methyl)-N′,1-dimethyl-N′-propionyl-1H-pyrazolo[4,3-c]quinoline-8-carbohydrazide] | < 100 nM
17 | < 1 nM | 92 | CCN(C)N(Cc1ccc(C(F)(F)F)cn1)C(=O)c1ccc2nc(N)c3cnn(C)c3c2c1 [Example 455, 4-amino-N′-ethyl-N′,1-dimethyl-N-((5-(trifluoromethyl)pyridin-2-yl)methyl)-1H-pyrazolo[4,3-c]quinoline-8-carbohydrazide] | < 100 nM
18 | < 1 nM | 25 | CCN(C)N(Cc1ccc(C(F)(F)F)cn1)C(=O)c1cc2c(cc1F)nc(N)c1cnn(C)c12 [Example 456, 4-amino-N′-ethyl-7-fluoro-N′,1-dimethyl-N-((5-(trifluoromethyl)pyridin-2-yl)methyl)-1H-pyrazolo[4,3-c]quinoline-8-carbohydrazide] | < 100 nM
